Measured values reported in patent US20250051324A1, “PARP INHIBITOR, PHARMACEUTICAL COMPOSITION COMPRISING SAME, AND USE THEREOF” (KEYTHERA (SUZHOU) BIO-PHARMACEUTICALS CO., LIMITED, priority 2021, published 2025).
Where two headings read alike, the source gives them in different places.

Assays:
in vitro = conditions: CD1, mouse, microsomes
Experimental: (§2) Experimental Materials: Mixed CD1 mouse liver microsomal enzyme protein was purchased from Xenotech (#M1000), and NADPH was purchased from Abmole (#M9076).
(§3) 1. To the liver microsomal enzyme reaction system, 210 μL of phosphate buffer was added, followed by 12.5 μL of liver microsomal enzyme at a concentration of 20 mg/mL. Then, 25 μL of NADPH at a concentration of 10 mM was added to the system, mixed well, and incubated in a 37° C. water bath with shaking for 10 minutes.
(§4) 2. The test compound, stored at a concentration of 10 mM, was diluted to 100 μM with DMSO. Then, 2.5 μL of the diluted test compound was added to the reaction system, mixed well, and incubated in a 37° C. water bath with shaking.
(§5) 3. At 0.5, 5, 10, 20, 30, and 60 minutes, 25 μL of the enzyme reaction mixture was taken and added to 125 μL of cold acetonitrile containing dexamethasone as an internal standard. The mixture was centrifuged at 4000 g for 20 minutes, and the supernatant was mixed with an equal volume of distilled water. The mixed sample was then subjected to quantitative analysis by liquid chromatography-mass spectrometry.
(§6) 4. Calculation of in vitro drug metabolism half-life and drug clearance rate:
(§7) t1/2=−0.693/k. (k: the slope of the linear regression of the natural logarithm of the percentage of drug remaining versus incubation time).

[1] = tested on: MDA-MB-436 breast cancer cells; experiment: Cell proliferation assay, MDA-MB-436; type: cell-based; conditions: Homo sapiens, MDA-MB-436, 168 h, read-out: MDA-MB-436 Cell IC50
Summary of the method: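 Cells seeded 16 h, then exposed to a 9-point 1:3 compound dilution series for 7 days at 37° C., 5% CO2; DMSO-matched and cell-free controls. Viability by CellCounting-Lite luminescence; IC50 from log concentration versus % inhibition.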

PARP1 [2] = biological target: T1, PARP1 (Homo sapiens (Human), UniProt P09874); experiment: PARP1 trapping assay; type: biochemical; conditions: read-out: Inhibitory Effect on PARP1 Trapping IC50
Experimental: (§1) [table] […] 1. A 4× enzyme reaction mixture, comprising PARP1, PARP2, and GST-Tb antibody, was prepared with the buffer and 4 μL of the enzyme reaction mixture was added to a 384-well plate. 2. A 4×PARP1 and PARP2 probe reaction mixture was prepared with the buffer and 4 μL of the probe reaction mixture was added to the 384-well plate. 3. A series of gradient-diluted compounds were prepared and 4 μL of the diluted compounds were added to the 384-well plate, and incubated at room temperature for 45 minutes. 4. After incubation, 4 μL of 4×NAD reaction mixture was added to the 384-well plate and incubated at room temperature for 10 minutes. 5. After incubation, the plate was read using a plate reader. 6. Data Analysis: The percentage inhibition rate was calculated as follows: Inhibition Rate (%)=(Reading of Compound Group−Reading of Blank Group)/(Reading of Vehicle Control Group−Reading of Blank Group).

[3] = Evaluation of pharmacokinetics in rats; type: in vivo; conditions: male, SD, rat, plasma, 1 mg/kg, oral gavage (PO, 1 mpk)
Source text: Test Animals: 6-8 Week Old Male SD Rats
Food was restored two hours after dosing.

[4] = Evaluation of pharmacokinetics in mice; conditions: male, ICR (CD1), mouse, plasma, po, 10 mg/kg
Experimental: (§8) Test Objective: The pharmacokinetics of the example compounds of the present application were tested in mice. By measuring the drug concentration in mouse plasma, the pharmacokinetic behavior of the compounds of the present invention was studied to evaluate their pharmacokinetic characteristics.
(§9) Test Animals: 6-8 Week Old Male ICR (CD1) Mice
(§10) Oral Gavage Drug Preparation: An appropriate amount of the test compound was first weighed and dissolved in DMSO (Macklin cas: 67-68-5) to prepare a 20 mg/mL solution. Then, 75 μL of this solution was added to 150 μL of Solutol (Sigma cas: 70142-34-6), followed by 1.275 mL of 20% Captisol (Selleck cas: 182410-00-0), resulting in a final drug concentration of 1 mg/mL.
(§11) Intravenous Injection Drug Preparation: An appropriate amount of the test compound was first weighed and dissolved in DMSO (Macklin cas: 67-68-5) to prepare a 30 mg/mL solution. Then, 15 μL of this solution was added to 150 μL of Solutol (Sigma cas: 70142-34-6), followed by 1.335 mL of 20% Captisol (Selleck cas: 182410-00-0), resulting in a final drug concentration of 0.3 mg/mL.
(§12) Procedures: The mice were fasted overnight with free access to water before the experiment. Food was restored two hours after dosing. Blood samples were collected at different time points after intravenous injection or oral gavage of the test compound in mice, and the compound concentration in plasma was measured. Approximately 50 μL of blood was collected from each animal using a capillary sampling tube via the orbital venous plexus, with heparin sodium as an anticoagulant. Blood samples were placed on ice, centrifuged at 3500 r/min for 10 minutes to separate the plasma, and 20 μL of the collected plasma was added to 200 μL of acetonitrile (Merck cas: 75-05-8) containing 200 nM dexamethasone (Selleck cas: 50-02-2) as an internal standard. The mixture was centrifuged at 8000 r/min for 20 minutes. After centrifugation, 150 μL of the supernatant was transferred to a new centrifuge tube, and 150 μL of 0.1% formic acid (Fisher cas: 207868) was added. The mixture was mixed well, and 5 μL of the sample was subjected to quantitative analysis by liquid chromatography-mass spectrometry (Q-TOF LC/MS).
(§13) The test compound was serially diluted with DMSO to cover the compound concentrations expected in plasma samples to be tested, with a blank sample (containing only DMSO) included.
(§14) 2 μL of each diluted sample at various concentrations was added to 18 μL of normal ICR mouse plasma, mixed, and then added to 200 μL of acetonitrile (Merck cas: 75-05-8) containing 200 nM dexamethasone (Selleck cas: 50-02-2) as an internal standard. The mixture was centrifuged for 20 minutes (8000 r/min). 150 μL of the supernatant was transferred to a new centrifuge tube, and 150 μL of 0.1% formic acid (Fisher cas: 207868) was added. The mixture was mixed well, and 5 μL of the sample was subjected to quantitative analysis by liquid chromatography-mass spectrometry (Q-TOF LC/MS).
(§15) The final standard curve was plotted using the concentration of the test compound after dilution on the abscissa and the ratio of the signal of the compound to the internal standard (dexamethasone) on the ordinate. The standard curve was generated using linear regression with GraphPad Prism 8 software (R2>0.9900).
(§16) Data Analysis: calculation of pharmacokinetic parameters: the concentration of the test compound in plasma at different time points after intravenous injection or oral gavage in ICR mice was determined based on the above standard curve, and pharmacokinetic parameters (T1/2, Cmax, AUC, etc.) were calculated using the Phoenix WinNonlin 8.1 non-compartmental analysis model.

PARP2 = PARP2 (Homo sapiens (Human), UniProt Q9UGN5); experiment: PARP2 trapping assay; type: biochemical; conditions: read-out: Inhibitory Effect on PARP2 Trapping IC50
Experimental: as §1

[5] = tested on: UWB1.289 ovarian cancer cells; experiment: Cell proliferation assay, UWB1.289; type: cell-based; conditions: UWB1289, 168 h, read-out: UWB1.289 Cell IC50
Experimental: Experimental Materials: MDA-MB-436 or UWB1.289 cell lines were purchased from Cobioer Biosciences Co. Ltd. (Nanjing, China). The STR identification results were a complete match, and mycoplasma testing was negative. MDA-MB-436 cells were cultured in DMEM complete medium containing 10% fetal bovine serum, 1% penicillin-streptomycin, 1% insulin, and 16 μg/mL glutathione; UWB1.289 cells were cultured in RMPI1640 complete medium containing 10% fetal bovine serum and 1% penicillin-streptomycin.
1. MDA-MB-436 or UWB1.289 cells were cultured in the aforementioned medium (culture conditions: 37° C., 5.0% CO2 in air) until they reached the logarithmic growth phase. The cells were then digested with trypsin containing 0.25% EDTA, centrifuged at 1000 rpm, and the supernatant was discarded. Cell culture medium was added, and the cell suspension was adjusted to 2×10^4/mL after counting. 135 μL of the cell suspension per well was taken and cultured in a 96-well cell culture plate for 16 hours (culture conditions: 37° C., 5.0% CO2 in air).
2. The test compounds, stored at a concentration of 10 mM, were diluted 2.5 times with DMSO and then serially diluted in a 1:3 gradient (9 gradients). The gradient-diluted samples were further diluted 40 times with serum-free medium, and 15 μL of each was added to the 96-well cell culture plate. The positive control group received serum-free medium containing the same concentration of DMSO, and the negative control group received medium without cells. The cells were then cultured for an additional 7 days.
3. After the culture period, the cell culture plate was placed at room temperature for 30 minutes. Then, 100 μL of CellCounting-Lite 2.0 reagent (Vazyme, #DD1101) was added to each well, mixed thoroughly, and incubated in the dark at room temperature for 10 minutes. The luminescence signal was read using a Synergy HTX multi-mode reader.
4. Data analysis was performed using GraphPad Prism 8.0 software. The inhibition rate (%) was calculated as 100*(average luminescence signal of the positive control group−luminescence signal of the compound)/(average luminescence signal of the positive control group−average luminescence signal of the negative control group). The IC50 value was obtained by plotting the logarithm of the compound concentration against the percentage inhibition rate.

PARP1 [6] = biological target: T1, PARP1; experiment: PARP enzyme activity assay (PARP1 chemiluminescent assay kit); type: biochemical; conditions: enzyme inhibitory activity, read-out: PARP-1 IC50
Summary of the method: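 Chemiluminescent kit measuring PARP1 poly(ADP-ribosylation) of plate-coated histones in presence of activated DNA; compounds in 1:3 serial dilution, top 10 μM before 10-fold buffer dilution. Enzyme (2.5 ng/μL added) reacted 60 min at room temperature, detected by streptavidin-HRP luminescence; IC50 from log-concentration vs % inhibition.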

[7] = Liver microsome metabolism assay; conditions: CD1, mouse, liver microsomes
Experimental: as §2, §3, §4, §5, §6, §7

in vivo = conditions: male, ICR (CD1), mouse, po, 10 mg/kg
Experimental: as §8, §9, §10, §11, §12, §13, §14, §15, §16

Chain of PARP2 (Q9UGN5 whole entry): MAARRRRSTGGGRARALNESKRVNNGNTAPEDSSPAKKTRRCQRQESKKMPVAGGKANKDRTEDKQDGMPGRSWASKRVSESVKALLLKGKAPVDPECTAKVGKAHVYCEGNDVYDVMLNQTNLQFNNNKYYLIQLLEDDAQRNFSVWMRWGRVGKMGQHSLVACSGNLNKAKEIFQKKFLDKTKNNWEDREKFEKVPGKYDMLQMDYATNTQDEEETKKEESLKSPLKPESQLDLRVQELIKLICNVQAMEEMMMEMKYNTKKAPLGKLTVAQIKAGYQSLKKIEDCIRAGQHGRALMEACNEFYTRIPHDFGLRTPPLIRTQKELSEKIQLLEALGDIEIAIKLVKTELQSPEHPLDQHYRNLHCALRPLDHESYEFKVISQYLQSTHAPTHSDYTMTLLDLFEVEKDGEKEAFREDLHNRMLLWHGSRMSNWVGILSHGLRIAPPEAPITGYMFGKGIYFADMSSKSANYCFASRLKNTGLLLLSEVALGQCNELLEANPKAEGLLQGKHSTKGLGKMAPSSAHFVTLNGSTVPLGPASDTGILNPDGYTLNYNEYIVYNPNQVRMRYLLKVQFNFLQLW
T1 sequence (P09874 whole entry): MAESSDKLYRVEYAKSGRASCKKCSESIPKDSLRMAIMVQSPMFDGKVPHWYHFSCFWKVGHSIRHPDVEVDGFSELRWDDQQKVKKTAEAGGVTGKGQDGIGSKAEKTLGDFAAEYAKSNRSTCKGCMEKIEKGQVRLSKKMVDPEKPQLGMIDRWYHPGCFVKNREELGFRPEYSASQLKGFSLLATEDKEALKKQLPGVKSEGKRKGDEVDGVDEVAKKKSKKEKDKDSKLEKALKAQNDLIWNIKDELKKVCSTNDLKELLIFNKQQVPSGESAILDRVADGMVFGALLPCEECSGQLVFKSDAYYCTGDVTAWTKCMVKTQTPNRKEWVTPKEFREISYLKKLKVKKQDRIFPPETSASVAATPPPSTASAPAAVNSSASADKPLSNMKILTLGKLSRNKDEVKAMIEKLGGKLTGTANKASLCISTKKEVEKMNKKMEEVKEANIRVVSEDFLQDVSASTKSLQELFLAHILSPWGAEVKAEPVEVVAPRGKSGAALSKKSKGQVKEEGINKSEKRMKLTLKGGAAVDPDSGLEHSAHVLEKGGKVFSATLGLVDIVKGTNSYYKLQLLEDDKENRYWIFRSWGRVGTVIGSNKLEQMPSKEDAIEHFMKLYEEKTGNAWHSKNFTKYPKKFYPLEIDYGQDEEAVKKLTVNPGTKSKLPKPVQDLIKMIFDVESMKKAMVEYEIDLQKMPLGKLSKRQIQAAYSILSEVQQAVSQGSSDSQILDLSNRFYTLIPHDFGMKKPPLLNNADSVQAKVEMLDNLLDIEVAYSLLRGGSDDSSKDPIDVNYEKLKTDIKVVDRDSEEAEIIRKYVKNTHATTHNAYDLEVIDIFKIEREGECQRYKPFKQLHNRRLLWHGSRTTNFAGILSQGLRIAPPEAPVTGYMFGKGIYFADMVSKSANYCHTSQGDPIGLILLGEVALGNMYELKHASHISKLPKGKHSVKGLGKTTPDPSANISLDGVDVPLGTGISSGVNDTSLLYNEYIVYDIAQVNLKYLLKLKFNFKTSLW

| AUC(0-inf) [4] | Cmax [4] | half-life [4] | IC50 ([5]; proliferation, 7 days) | Compound | microsomal CLint at 1 µM (in vitro) | IC50 ([1]; proliferation, 7 days) | IC50 (PARP1 [2]) | AUC(0-inf) [3] | Cmax [3] | half-life [3] | IC50 (PARP2) | IC50 (PARP1 [6]) | microsomal CLint at 1 µM [7] | IC50 [1] | IC50 [5] | AUC(0-inf) (in vivo) | Cmax (in vivo) | half-life (in vivo) |
| --- | --- | --- | --- | --- | --- | --- | --- | --- | --- | --- | --- | --- | --- | --- | --- | --- | --- | --- |
|  |  |  |  | CNC(=O)c1ccc(C2=CCN(Cc3cc4[nH]c(=O)c(C(F)(F)F)c(C)c4cn3)CC2)cn1 [Compound 89, N-methyl-1′-((4-methyl-2-oxo-3-(trifluoromethyl)-1,2-dihydro-1,6-naphthyridin-7-yl)methyl)-1′,2′,3′,6′-tetrahydro-[3,4′-bipyridine]-6-carboxamide] | 0.81 µL/min/mg | 1.06 nM | 1.53 nM |  |  |  |  |  |  |  |  |  |  |  |
| 987 µg·h/mL | 48.2 µg/mL | 17.9 h | 3.34 nM | CNC(=O)c1ccc(N2CCN(Cc3cnc4c(C)c(C(F)(F)F)c(=O)[nH]c4c3)C[C@H]2C)cn1 [Compound 54, (R)—N-methyl-5-(2-methyl-4-((8-methyl-6-oxo-7-(trifluoromethyl)-5,6-dihydro-1,5-naphthyridin-3-yl)methyl)piperazin-1-yl)picolinamide] |  | 4.32 nM | 1.31 nM | 16.8 µg·h/mL | 1.69 µg/mL | 7.2 h | 192 nM |  |  |  |  |  |  |  |
|  |  |  |  | CNC(=O)c1ccc(N2CCN(Cc3cc4[nH]c(=O)c(C(F)(F)F)c(C)c4cn3)CC2)cn1 [Compound 2, N-methyl-5-(4-((4-methyl-2-oxo-3-(trifluoromethyl)-1,2-dihydro-1,6-naphthyridin-7-yl)methyl)piperazin-1-yl)picolinamide] |  |  | 1.22 nM | 19.3 µg·h/mL | 2 µg/mL | 5.07 h | 137 nM | 3.14 nM | 0.39 µL/min/mg | 2.32 nM | 2.76 nM |  |  |  |
|  |  |  |  | CNC(=O)c1cnc(C2=CCN(Cc3cnc4c(C)c(C(F)(F)F)c(=O)[nH]c4c3)CC2)cn1 [Compound 79, N-methyl-5-(1-((8-methyl-6-oxo-7-(trifluoromethyl)-5,6-dihydro-1,5-naphthyridin-3-yl)methyl)-1,2,3,6-tetrahydropyridin-4-yl)pyrazine-2-carboxamide] | 0.69 µL/min/mg | 18.5 nM |  |  |  |  |  |  |  |  |  | 2420 µg·h/mL | 57 µg/mL | 30.5 h |
| 1550 µg·h/mL | 50.2 µg/mL | 25.9 h | 11.2 nM | CNC(=O)c1ccc(N2CCN(Cc3cnc4c(C)c(C(F)(F)F)c(=O)[nH]c4c3)[C@@H](C)C2)cn1 [Compound 52, (S)—N-methyl-5-(3-methyl-4-((8-methyl-6-oxo-7-(trifluoromethyl)-5,6-dihydro-1,5-naphthyridin-3-yl)methyl)piperazin-1-yl)picolinamide] |  | 5.05 nM | 1.6 nM | 18.8 µg·h/mL | 1.45 µg/mL | 5.67 h | 271 nM |  |  |  |  |  |  |  |

| Compound | AUC(0-inf) [4] | Cmax [4] | half-life [4] | IC50 ([5]; proliferation, 7 days) | microsomal CLint at 1 µM (in vitro) | IC50 ([1]; proliferation, 7 days) | IC50 (PARP1 [2]) | AUC(0-inf) [3] | Cmax [3] | half-life [3] | IC50 (PARP2) | IC50 (PARP1 [6]) | microsomal CLint at 1 µM [7] | IC50 [1] | IC50 [5] | AUC(0-inf) (in vivo) | Cmax (in vivo) | half-life (in vivo) |
| --- | --- | --- | --- | --- | --- | --- | --- | --- | --- | --- | --- | --- | --- | --- | --- | --- | --- | --- |
| CNC(=O)c1ccc(C2=CCN(Cc3cnc4c(C)c(C(F)(F)F)c(=O)[nH]c4c3)CC2)cn1 [Compound 14, N-methyl-1′-((8-methyl-6-oxo-7-(trifluoromethyl)-5,6-dihydro-1,5-naphthyridin-3-yl)methyl)-1′,2′,3′,6′-tetrahydro-[3,4′-bipyridine]-6-carboxamide] | 2720 µg·h/mL | 128 µg/mL | 27.8 h | 4.93 nM |  | 2.38 nM | 1.38 nM | 19.2 µg·h/mL | 1.77 µg/mL | 6.35 h | 176 nM | 0.83 nM |  |  |  |  |  |  |
